# Results published in patent US20250144083A1, “METHODS AND COMPOSITIONS FOR TREATING CANCER IN TAXANE-RESISTANT PATIENTS” (MODRA PHARMACEUTICALS B.V., priority 2022, published 2025).
# “And” between values parts separate entries of the source, which are not always exact repeats. Identical values can stand only once. Like-named read-outs stand apart in the source and are kept apart here.
# Legend:
# Type in all cases: cell-based
# [1] = system: 22Rv1 DOC8 prostate cancer cells; experiment: 3D clonogenic assay, docetaxel-resistant 22Rv1 DOC8; settings: for Relative Resist to docetaxel: compared to parental 22Rv1 cells without elacridar; for IC50: Homo sapiens
# Experimental: (§1) For the single agent efficacy experiment, a master stock solution of cabazitaxel was prepared by dissolving compound powder in DMSO at a concentration of 10 mM. From this a working stock solution of 0.1 mM (330-fold the highest test concentration) was prepared. Small aliquots of this solution were stored at −20° C. On each day of an experiment, a frozen aliquot of the working stock solution was thawed and stored at room temperature prior to and during treatment. First, serial half-log dilutions of the working stock solution were prepared in DMSO. These dilutions were then diluted 1:22 into cell culture medium in an intermediate dilution plate. Finally, 10 μl taken from the intermediate dilution plate were transferred to 140 μl/well of the final assay plate. Thus, the DMSO working stock was diluted 1:330, and the DMSO concentration in the assay was 0.3% v/v.
# (§2) For combination experiments, working stock solutions of docetaxel, ritonavir, elacridar, and cabazitaxel were prepared in DMSO at concentrations of 660-fold the highest test concentration used. Small aliquots of this stock solution were stored at −20° C. On each day of an experiment, a frozen aliquot of the working stock solutions was thawed and stored at room temperature prior to and during treatment. First, 1:2 dilutions of 660-fold concentrated working stocks were done in DMSO (in case of monotherapy controls), or equal amounts of the compound working stocks were mixed (in case of drug combinations). Then, different dilutions of these 330-fold concentrated solutions were done in DMSO to give a 8*2 matrix combination layout. The DMSO dilutions were further diluted 1:22 into cell culture medium (IMDM, supplemented with 20% (v/v) fetal calf serum, 50 μg/ml gentamicin) in an intermediate dilution plate. Finally, 10 μl taken from the intermediate dilution plate were transferred to 140 μl of cells and medium per well of the final assay plate. Thus, the DMSO dilutions used for the mono- and the combination-treatment were diluted 1:330, and the DMSO concentration in the assay was 0.3% v/v.
# (§3) DU-145 DOC10 was generated from DU-145 and 22Rv1 DOC8 was generated from 22Rv1. 22Rv1 was obtained from American Type Culture Collection (ATCC, Rockville, MD, USA), whereas DU-145 was obtained from National Cancer Institute (NCI, Bethesda, MD, USA).
# (§4) Tumour cell lines were grown at 37° C. in a humidified atmosphere with 5% CO2 in RPMI 1640 medium (Biochrom) supplemented with 10% (v/v) fetal calf serum and 50 μg/ml gentamicin. Docetaxel resistant sublines were cultured in the presence of 8 nM (22Rv1) or 10 nM docetaxel (DU-145). The cells were routinely passaged once or twice weekly and maintained in culture for up to 20 passages. For the assay, cells were harvested using TrypLE and the percentage of viable cells was determined by the CASY TT cell counter (OMNI Life Science).
# (§5) The clonogenic assay was carried out in a 96 well plate format using ultra low attachment plates. For each test, cells were prepared and assay plates were prepared as follows: each test well contained a layer of semi-solid medium with tumour cells (50 μl), and a second layer of medium supernatant with or without test compound (100 μl). The cell layer consisted of 2·10^3 to 3·10^3 tumour cells per well, which were seeded in 50 μl/well cell culture medium (IMDM, supplemented with 20% (v/v) fetal calf serum, 50 μg/ml gentamicin, and 0.4% (w/v) agar). After 24 h, the soft-agar layer was covered with 90 μl of the same culture medium without agar, and 10 μl of control medium or test compound after serial dilution in DMSO and transfer in cell culture medium were added, and left on the cells for the duration of the experiment (continuous exposure, 100 μl drug overlay). Every plate included six untreated control wells and drug-treated groups. Duplicate values were obtained by testing single values per condition on one plate. […]
# [2] = system: DU-145 DOC10 prostate cancer cells; experiment: 2D culture docetaxel resistance, DU-145 DOC10 vs DU-145; settings: 2D setup, DU-145 cells exposed to docetaxel for 3 months
# [3] = system: 22Rv1 prostate cancer cells; experiment: 3D clonogenic assay, parental 22Rv1; settings: Homo sapiens; 22Rv1, without elacridar; from previously performed experiment; read-out: IC50 value of docetaxel
# Experimental: as §1
# as §2, with “Finally, 10 μl taken from the intermediate dilution plate were transferred to 140 μl of cells and medium per well of the final assay plate. Thus, the DMSO dilutions used for the mono- and the combination-treatment were diluted 1:330, and the DMSO concentration in the assay was 0.3% v/v.” left out
# Tumour cell lines were grown at 37° C. in a humidified atmosphere with 5% CO2 in RPMI 1640 medium (Biochrom) supplemented with 10% (v/v) fetal calf serum and 50 μg/ml gentamicin. […] For the assay, cells were harvested using TrypLE and the percentage of viable cells was determined by the CASY TT cell counter (OMNI Life Science). […]
# [4] = system: DU-145 DOC10 prostate cancer cells; experiment: 3D clonogenic assay, docetaxel-resistant DU-145 DOC10; settings: for Relative Resist to docetaxel: compared to parental DU-145 cells without elacridar; for Relative Resistance to docetaxel: compared to parental DU-145 cells without ritonavir; for IC50: Homo sapiens, read-out: IC50 value of docetaxel
# Experimental: as §1, §2, §3, §4, §5
# [5] = system: DU-145 prostate cancer cells; experiment: 3D clonogenic assay, parental DU-145; settings: Homo sapiens, read-out: IC50 value of docetaxel
# Experimental: as §1, §2, §3, §4, §5
# [6] = system: 22Rv1 DOC8 prostate cancer cells; experiment: 2D culture docetaxel resistance, 22Rv1 DOC8 vs 22Rv1; settings: 2D setup, 22Rv1 cells exposed to docetaxel for 3 months
smiles,measurement,setting,value
CC(=O)O[C@@]12CO[C@@H]1C[C@H](O)[C@@]1(C)C(=O)[C@H](O)C3=C(C)[C@@H](OC(=O)[C@H](O)[C@@H](NC(=O)OC(C)(C)C)c4ccccc4)C[C@@](O)([C@@H](OC(=O)c4ccccc4)[C@H]21)C3(C)C [docetaxel],fold decrease of relative IC50 value of docetaxel,"[1]; 31.6 μM ritonavir, cell line not given",84 fold
same,"resistance to docetaxel, fold","[1]; 3D setup (clonogenic assay), 22Rv1 DOC8 vs parental",42 fold
same,Relative Resist to docetaxel,"[1]; 22Rv1 DOC8, 0.3 μM elacridar",1.1
same,Relative Resist to docetaxel,"[1]; 22Rv1 DOC8, 1 μM elacridar",1
same,fold lower IC50 value (increase in sensitivity),"[1]; 22Rv1 DOC8, 32 μM ritonavir, cabazitaxel experiment (FIG. 12)",14 fold
same,fold lower IC50 value (increase in sensitivity to docetaxel),"[1]; 22Rv1 DOC8, 0.3 and 1 μM elacridar",100 fold
same,Relative Resist to docetaxel,[1]; 22Rv1 DOC8 without elacridar,103
same,IC50,"[1]; 22Rv1, 31.6 μM ritonavir, cell line not given, read-out: relative IC50 value of docetaxel",2.6 nM
same,IC50,"[1]; 22Rv1, 22Rv1 DOC8, 0.3 μM elacridar, read-out: IC50 value of docetaxel",1.4 nM
same,IC50,"[1]; 22Rv1, 22Rv1 DOC8, 1 μM elacridar, read-out: IC50 value of docetaxel",1.3 nM
same,IC50,"[1]; 22Rv1, 22Rv1 DOC8, 32 μM ritonavir, read-out: Docetaxel IC50 value",3 nM
same,IC50,"[1]; 22Rv1, 22Rv1 DOC8, without elacridar (elacridar experiment), read-out: IC50 value of docetaxel",134 nM
same,IC50,"[1]; 22Rv1, 22Rv1 DOC8, without ritonavir, read-out: Docetaxel IC50 value",202 nM
same,IC50,"[1]; 22Rv1, without ritonavir, cell line not given, read-out: relative IC50 value of docetaxel",219 nM
same,"resistance to docetaxel: fold increase in IC50 value compared to parental, untreated cells",[2],~20 fold and 21 fold and 22 fold
same,IC50,[3],1.3 nM
same,Relative Resist to docetaxel,"[4]; DU-145 DOC10, 0.3 μM elacridar",1.7
same,Relative Resist to docetaxel,"[4]; DU-145 DOC10, 1 μM elacridar",1.5
same,Relative Resistance to docetaxel,"[4]; DU-145 DOC10, 1 μM ritonavir",3.0
same,fold lower IC50 value (increase in sensitivity to docetaxel),"[4]; DU-145 DOC10, 10 μM ritonavir",3.4 fold
same,Relative Resistance to docetaxel,"[4]; DU-145 DOC10, 10 μM ritonavir",1.0
same,fold lower IC50 value (increase in sensitivity),"[4]; DU-145 DOC10, 10 μM ritonavir, cabazitaxel experiment (FIG. 10)",2.5 fold
same,Relative Resist to docetaxel,[4]; DU-145 DOC10 without elacridar,11
same,Relative Resistance to docetaxel,"[4]; DU-145 DOC10 without ritonavir, 3D setup",3.3
same,IC50,"[4]; DU-145, DU-145 DOC10, 0.3 μM elacridar",1.9 nM
same,IC50,"[4]; DU-145, DU-145 DOC10, 1 μM elacridar",1.6 nM
same,IC50,"[4]; DU-145, DU-145 DOC10, 1 μM ritonavir",8.8 nM
same,IC50,"[4]; DU-145, DU-145 DOC10, 10 μM ritonavir",2.8 nM
same,IC50,"[4]; DU-145, DU-145 DOC10, without elacridar (elacridar experiment)",11.7 nM
same,IC50,"[4]; DU-145, DU-145 DOC10, without ritonavir",9.5 nM
same,IC50,"[5]; DU-145, DU-145, 0.3 μM elacridar",1.1 nM
same,IC50,"[5]; DU-145, DU-145, 1 μM elacridar",1.1 nM
same,IC50,"[5]; DU-145, DU-145, 1 μM ritonavir",1.8 nM
same,IC50,"[5]; DU-145, DU-145, 10 μM ritonavir",1.7 nM
same,IC50,"[5]; DU-145, DU-145, without elacridar (elacridar experiment)",1.1 nM
same,IC50,"[5]; DU-145, DU-145, without ritonavir",2.9 nM
same,"resistance to docetaxel: fold increase in IC50 value compared to parental, untreated cells",[6],> 100 fold and 105 fold and 134 fold
